Test results taken from patent publication US9505735B2, “Compounds for treating infectious diseases” (Whitehead Institute for Biomedical Research, priority 2012, dated 2016).

What was measured:
Type in all cases: cell-based
Candida glabrata = test: Antifungal susceptibility testing
Protocol: (§1) Sensitivity to gepinacin was determined in 96-well, flat bottom microtiter plates using a modification of the NCCLS broth microdilution protocol CLS M27-A3 and RPMI as culture medium. Fungi were inoculated at ˜10^3 cells per ml and incubated for 48 hours at 37° C. after which plates were sealed, shaken and the optical density read at 600 nm (OD600) on a Tecan Safire 2 plate reader. All samples were run in duplicate or triplicate and assays were repeated at least once. Results are expressed as fraction of growth in the absence of compound and the mean and standard deviation are plotted. For the mold A. terreus, inoculum was 10^4 cells per ml and plates were incubated at 35° C. for 48 hours in the dark. Plates were then visually scored as specified by CLSI document M38-A2 to determine the MIC50 and MIC80.

S. cerevisiae = test: Antifungal susceptibility testing
Protocol: as §1

[1] = tested on: S. cerevisiae strains deleted for IRE1 or HAC1; test: Antifungal susceptibility testing of UPR-deficient strains; settings: 48 hour
Protocol: (A) Immunoblots of lysates prepared from S. cerevisiae treated with gepinacin showing GPI-anchor-selective impairment of protein maturation. The unprocessed (u), precursor (p), and mature (m) forms of the reporter proteins are indicated. The identity of the tagged reporter proteins (top of panel) and the antibodies used for their detection (bottom of panel) are also indicated. Treatment conditions are DMSO (0.05%), gepinacin (GPN, 10 μM) or tunicamycin (Tun, 10 μM). The same lysate was used for both blots. […] GFP expression was monitored by flow cytometry. (C) Anti-fungal susceptibility testing of strains deleted for IRE1 (activator of the UPR) or HAC1 (effector of the UPR) showing their increased sensitivity to gepinacin.
Anti-fungal susceptibility testing of strains bearing deletion of IRE1 (activator of the UPR) or HAC1 (effector of the UPR) using either […] (A) or fluconazole (B). Growth was measured by OD600 after 48 hour exposure to serial dilutions of the compounds as indicated. Results are expressed as a fraction of the OD600 measured in the absence of gepinacin. The mean and standard deviation of triplicate determinations are shown.

Candida albicans = test: Antifungal susceptibility testing, wild type and drug-resistant strains
Protocol: Anti-fungal susceptibility testing of a fluconazole-resistant C. albicans strain under standard conditions. Yeast were incubated at 30° C. for 24 hours with serial dilutions of the indicated compounds. Growth was monitored by OD600 and is expressed as fraction of the growth observed in the absence of compound.
Archives of all strains were maintained in 25% glycerol at −80° C. Standard S. cerevisiae lab strains W303, BY4741, BY4742 and BY4743 were used for experiments. The C. albicans wild type strain in FIG. 1 was CaI4, a standard laboratory strain (Fonzi, et al. (1993) Genetics 134, 717-728). […]
as §1, with “All samples were run in duplicate or triplicate and assays were repeated at least once.” left out, “For the mold A. terreus, inoculum was 10^4 cells per ml and plates were incubated at 35° C. for 48 hours in the dark.” left out

[2] = tested on: S. cerevisiae strains with graded levels of Gwt1 expression; test: Antifungal susceptibility testing of strains with graded GWT1 copy number
Excerpt: (A) Anti-fungal susceptibility testing of S. cerevisiae strains with graded levels of Gwt1 expression treated with gepinacin. Wild type diploids (Wt) or diploids with one copy of GWT1 deleted (gwt1/GWT1) were transformed with low copy (CEN) plasmids encoding GWT1 or GFP (as a control). (B) Schematic of Gwt1 protein function in cells. Glucosamine (shown as a black circle) phosphatidyl inositol (GlcN-PI) is acylated (orange zigzag) by Gwt1 to become GlcN-(acyl)PI.
Anti-fungal susceptibility testing of wild type diploids (Wt) or diploids with one copy of GWT1 deleted (gwt1Δ/GWT1) transformed with high copy (2 micron) plasmids containing GWT1 or GFP (as a control). The strains were treated with gepinacin for 48 hours and the growth was monitored by measuring the optical density at 600 nm (OD600). The results are expressed as a fraction of the OD600 measured in the absence of gepinacin.
To determine the mechanism responsible for the antifungal activity of the compound, the powerful genetic tools available in the model fungal organism S. cerevisiae were utilized. Both an arrayed haploid over-expression library and a pooled heterozygous deletion library were screened for enhancement or suppression of toxicity. […] With each strain expressing one open reading frame (ORF), this library covered approximately 90% of the yeast genome. […]

COc1ccc(NC(=O)COc2cccc(OCC(C)C)c2)cc1 [gepinacin]
growth inhibition (Candida glabrata): inhibited the growth
growth inhibition (S. cerevisiae): inhibited the growth
change of toxicity by deletion of HAC1 or IRE1 [1]: greatly increased the toxicity
growth inhibition (Candida albicans): inhibited the growth
growth inhibition of isolates resistant to the three major classes of antifungals (Candida albicans; fluconazole-, amphotericin B-, caspofungin-resistant strains): inhibited the growth of multiple isolates
toxicity versus GWT1 copy number [2]: inversely correlated with GWT1 copy number
